Measured values as given in patent publication US20210371440A1, “TLR7 AND / OR TLR8 AGONISTS” (GLAXOSMITHKLINE BIOLOGICALS SA, priority 2018, published 2021).

Experiments:
human TLR7 = molecular target: T1, human TLR7 (Homo sapiens, UniProt Q9NYK1); test: HEK293 hTLR7 NFKB-SEAP reporter assay; format: cell-based; details: for EC50: HEK293 stably transfected with hTLR7, 24 h stimulation, aqueous formulations of choline salts (2% glycerol), SEAP readout, read-out: TLR7 ED50; for TLR7/8 ratio: ratio of TLR7 ED50 to TLR8 ED50, HEK293 reporter cells
T1 construct: host or cells: HEK293
T1 sequence (Q9NYK1 27-1049): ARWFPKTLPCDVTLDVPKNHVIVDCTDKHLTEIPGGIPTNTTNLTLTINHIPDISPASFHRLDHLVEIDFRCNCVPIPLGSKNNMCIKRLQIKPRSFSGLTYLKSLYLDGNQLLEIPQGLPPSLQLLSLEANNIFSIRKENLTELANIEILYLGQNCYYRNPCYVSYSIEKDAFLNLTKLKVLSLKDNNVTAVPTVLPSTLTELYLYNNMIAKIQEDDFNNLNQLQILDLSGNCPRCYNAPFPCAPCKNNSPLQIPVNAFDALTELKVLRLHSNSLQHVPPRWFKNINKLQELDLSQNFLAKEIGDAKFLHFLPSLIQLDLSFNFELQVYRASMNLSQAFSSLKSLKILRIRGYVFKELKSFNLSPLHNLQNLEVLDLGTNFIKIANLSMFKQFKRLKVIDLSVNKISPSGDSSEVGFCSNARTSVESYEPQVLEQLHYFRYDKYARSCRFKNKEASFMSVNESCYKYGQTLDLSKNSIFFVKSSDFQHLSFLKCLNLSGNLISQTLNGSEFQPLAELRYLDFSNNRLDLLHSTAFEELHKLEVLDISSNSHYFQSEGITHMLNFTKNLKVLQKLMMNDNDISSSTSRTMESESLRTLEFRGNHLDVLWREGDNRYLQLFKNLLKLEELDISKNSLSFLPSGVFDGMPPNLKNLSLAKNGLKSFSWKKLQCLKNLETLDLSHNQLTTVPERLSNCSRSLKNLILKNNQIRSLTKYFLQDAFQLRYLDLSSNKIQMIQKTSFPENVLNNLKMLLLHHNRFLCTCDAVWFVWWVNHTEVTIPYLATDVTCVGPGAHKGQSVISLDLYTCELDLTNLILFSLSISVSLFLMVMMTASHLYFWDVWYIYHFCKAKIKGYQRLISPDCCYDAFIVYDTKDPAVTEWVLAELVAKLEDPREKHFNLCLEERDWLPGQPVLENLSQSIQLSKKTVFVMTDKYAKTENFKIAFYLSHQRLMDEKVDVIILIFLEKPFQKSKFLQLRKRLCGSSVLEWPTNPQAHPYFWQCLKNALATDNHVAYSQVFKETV
Method: (§1) Determination of TLR agonist activity was performed using the HEK293 binding assay.
(§2) This assay measures TLR7 and TLR8 selectivity and potency of the compounds tested. HEK293 cells expressing human TLR7 or TLR8 and NFKB responsive Secreted Embryonic Alkaline Phosphatase (SEAP) reporter gene were obtained from InvitroGen (San Diego, Calif.). These cells were maintained in culture media of Dulbecco's Modified Eagle Medium (DMEM) (Invitrogen, Grand Island, N.Y.), 10% Fetal Bovine Serum (FBS) (Sigma, St. Louis, Mo.) and selection antibiotics (Invitrogen, and Invitrogen). HEK293 stably transfected with human TLR7 (hTLR7) or human TLR8 (hTLR8) were stimulated for 24 h with aqueous formulations of compounds and culture supernatants were analysed for NFKB activation using the colorimetric SEAP detection kit QuantBlue (InvitroGen).
(§3) Choline salts of the compounds were prepared in aqueous solution (2% glycerol) and sonicated to reduce particle size to 120-370 nm.

human TLR8 = molecular target: T2, human TLR8 (Homo sapiens, UniProt Q9NR97); test: HEK293 hTLR8 NFKB-SEAP reporter assay; format: cell-based; details: for EC50: HEK293 stably transfected with hTLR8, 24 h stimulation, aqueous formulations of choline salts (2% glycerol), SEAP readout, read-out: TLR8 ED50
T2 construct: host or cells: HEK293
T2 sequence (Q9NR97 27-1041): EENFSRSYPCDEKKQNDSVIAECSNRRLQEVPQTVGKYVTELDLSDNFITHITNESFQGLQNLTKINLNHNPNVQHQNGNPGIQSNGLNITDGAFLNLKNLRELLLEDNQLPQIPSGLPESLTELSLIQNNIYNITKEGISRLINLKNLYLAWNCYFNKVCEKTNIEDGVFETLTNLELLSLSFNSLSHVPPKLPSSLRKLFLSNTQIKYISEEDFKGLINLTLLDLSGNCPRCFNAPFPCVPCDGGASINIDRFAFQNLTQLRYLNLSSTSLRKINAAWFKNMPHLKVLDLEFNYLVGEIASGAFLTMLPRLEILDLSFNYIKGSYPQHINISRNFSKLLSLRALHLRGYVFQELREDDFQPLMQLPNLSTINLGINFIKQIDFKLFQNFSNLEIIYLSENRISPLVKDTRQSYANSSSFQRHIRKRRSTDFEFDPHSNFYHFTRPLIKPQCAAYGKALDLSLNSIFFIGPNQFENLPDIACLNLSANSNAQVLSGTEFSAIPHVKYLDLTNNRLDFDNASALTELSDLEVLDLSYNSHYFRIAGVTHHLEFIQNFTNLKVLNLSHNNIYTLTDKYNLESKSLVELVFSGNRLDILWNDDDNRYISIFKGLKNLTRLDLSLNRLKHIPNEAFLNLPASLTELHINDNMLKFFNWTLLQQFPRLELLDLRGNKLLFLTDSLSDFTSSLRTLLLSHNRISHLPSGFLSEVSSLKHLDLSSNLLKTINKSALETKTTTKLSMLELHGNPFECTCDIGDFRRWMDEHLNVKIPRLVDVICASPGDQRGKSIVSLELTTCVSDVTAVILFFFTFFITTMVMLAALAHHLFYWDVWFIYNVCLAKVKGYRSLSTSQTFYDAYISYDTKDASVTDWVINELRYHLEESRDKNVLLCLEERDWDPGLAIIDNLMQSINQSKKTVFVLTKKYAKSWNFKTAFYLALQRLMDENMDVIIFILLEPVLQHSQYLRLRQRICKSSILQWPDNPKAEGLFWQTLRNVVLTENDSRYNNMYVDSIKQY
Method: as §1, §2, §3

Compound | hTLR7 activity compared with parent core oxoadenine compound (human TLR7; HEK293 hTLR7, result in words) | TLR7/TLR8 selectivity in words (human TLR7; HEK293 hTLR7 vs hTLR8, relative to similar prior art compounds) | EC50 (human TLR7) [nM] | TLR7/8 ratio (human TLR7) | hTLR8 activity compared with parent core oxoadenine compound (human TLR8; HEK293 hTLR8, result in words) | EC50 (human TLR8) [nM]
CCCCCCCC/C=C\CCCCCCCC(=O)OC[C@H](COP(=O)(O)OCCN1CCC(Cn2c(=O)[nH]c3c(N)nc(O[C@@H](C)CCC)nc32)CC1)OC(=O)CCCCCCC/C=C\CCCCCCCC [Compound 1] | slightly more potent | TLR7 bias | 320 | 0.7 | slightly more potent | 470
CC/C=C\CC(=O)OC[C@H](COP(=O)(O)OCCn1c(CCCC)nc2c(N)nc3ccccc3c21)OC(=O)C/C=C\CC [reference compound] | – | – | 34600 | 1.3 | – | 26000
CCCCc1nc2c(N)nc3ccccc3c2n1CCO [reference compound] | – | – | 580 | 3.1 | – | 190
CCC[C@H](C)Oc1nc(N)c2[nH]c(=O)n(CC3CCN(CCO)CC3)c2n1 | – | – | 340 | 0.6 | – | 530
